Experimental data as given in patent publication US4443434A, “Antiulcer agent” (American Home Products Corporation, priority 1982, dated 1984).

Experiments:
gastric blood flow = gastric blood flow by 86Rb distribution in rats; assay type: in vivo, rat; conditions: 1 mg/kg/hr i.v. infusion, 86RbCl at 30 min, mean ± S.E.M., 5 animals per group; saline 1.20 ± 0.05
Description: The effect of the octapeptide on gastric blood flow was established by the following procedure:
Rats weighing 280-350 gms were used. Rats were anesthatized with 50 mg/kg Nembutal and their left jugular veins cannulated. Somatostatin, 1 mg/kg/hr, was infused i.v. in one group of rats while a second group received a saline infusion. In a second experiment the octapeptide of the method of this invention, 1 mg/kg, or saline was injected s.c. Thirty minutes following the start of the experiment 20 μCi/rat of ^86 RbCl was injected i.v. The rats were killed 20 seconds later by injection of 0.5 ml Nembutal. The blood flow to the stomach was determined by counting ^86 Rb in the disected stomachs of the rats.

gastric acid secretion [1] = conditions: dose as high as 2 μm/kg, s.c.; cited from earlier work
gastric acid secretion [2] = conditions: on a molar basis; cited from earlier work

C[C@H](N)C(=O)NCC(=O)N[C@H]1CSSC[C@@H](C(=O)O)NC(=O)[C@H](CO)NC(=O)[C@H]([C@@H](C)O)NC(=O)[C@H](Cc2ccccc2)NC(=O)[C@H]([C@@H](C)O)NC(=O)[C@H](CCCCN)NC(=O)[C@H](Cc2c[nH]c3ccccc23)NC(=O)[C@H](Cc2ccccc2)NC(=O)[C@H](Cc2ccccc2)NC(=O)[C@H](CC(N)=O)NC(=O)[C@H](CCCCN)NC1=O [somatostain, somatostatin]
% total 86Rb in stomach (gastric blood flow): 1.03 ± 0.05%

D-Lys^6 -SRIF
effect on gastric acid secretion (gastric acid secretion [1]): no appreciable effect

CSCCC(NC(=O)C(Cc1c[nH]c2ccccc12)NC(=O)CNC(=O)C(Cc1ccc(O)cc1)NC(=O)C(C)NC(=O)C(CCC(=O)O)NC(=O)C(CCC(=O)O)NC(=O)C(CCC(=O)O)NC(=O)[C@H](CCC(=O)O)NC(=O)[C@H](CCC(=O)O)NC(=O)[C@H](CC(C)C)NC(=O)[C@H](Cc1c[nH]c2ccccc12)NC(=O)[C@@H]1CCCN1C(=O)CNC(=O)[C@@H](N)CCC(=O)O)C(=O)NC(CC(=O)O)C(=O)NC(Cc1ccccc1)C(N)=O (stereo in doubt) [gastrin]
potency as stimulant of gastric acid secretion relative to histamine (gastric acid secretion [2]): 1,500 times
